Earlier results on 1 compound are cited in patent publication US20040096496A1, “Sustained release pharmaceutical composition of a cephalosporin antibiotic” (Orchid Chemicals & Pharmaceuticals Limited, priority 2002, published 2004).

The conditions of this data set: background statement, species not given.

Take `CC=CC1=C(C(=O)O)N2C(=O)[C@@H](NC(=O)[C@H](N)c3ccc(O)cc3)[C@H]2SC1` [Cefprozil]: the half-life was 1.17 h.

A word on the half-life: it is the time in which the quantity being followed falls by half.
